In patent publication US20210199657A1, “I[…] AND USE THEREOF” (priority 2016, published 2021):

How the values were obtained:
[1] = test system: antibodies contained in pools of serums from patients suffering from active tuberculosis; experiment: ELISA screening of peptides on pools of serums from patients with active TB (ratio R); conditions: for ratio R: for 3 of the 4 serums tested
Experimental: In order to determine which peptides are of interest, a ratio R is calculated, the ratio R being the normalized measurement value of the immune complex formation, relative to the respective background noises of the serums and components used to detect the immune complexes, to, or divided by, the normalized measurement value obtained from the sample derived from a healthy individual relative to the respective background noises of the serums and components used to detect the immune complexes.
In order to determine the immunogenicity of the peptides, they are tested using the following ELISA test:
The peptides are fixed on a Maxisorp (high binding) plate: Incubation overnight at 4° C., concentration of the protein in μg/ml from 20 to 50.
The wells are rinsed with 300 μL of phosphate buffered saline (PBS).
The “wells” are blocked for 2 hours at ambient temperature (19° C.-25° C.) with 200 μL of bovine serum albumin (BSA) 2% and 0.01% of Tween 20.
The wells are rinsed with 200 μL of PBS.
One deposits 100 μL of serums from patients suffering from active TA diluted at 1/100th in blocking solution and incubates for one hour at 37° C.
Perform 3 washes (300 μL) PBS-Tween 20 (0.05%).
One adds 100 μL of antibodies conjugated with peroxidase, diluted at 1/20,000 with blocking solution and incubates for 1 h at 37° C.
One adds 100 μL of 3,3′,5,5′-tetramethylbenzidine (TMB) and incubates for 20 minutes in the dark.
One deposits 50 μL of sulfuric acid at 1N.
A spectrophotometer is used at 450 nm to read the quantity of TMB converted by the peroxidase (indicative of the formation of an immune complex between the peptides and the antibodies contained in the serum).

[2] = test system: negative pool (serum of individuals not suffering from tuberculosis); experiment: ELISA of peptides on negative pool of samples; assay type: binding, human; conditions: 450 nm

Row | Sequence | ratio R [1] | OD Negative pool [2] | ratio ([1]; for both pools of patients) | Ratio Positive pool 1 ([1]; positive pool 1) | Ratio Positive pool 2 ([1]; positive pool 2)
1 | DADARVAVPRRDDL (DADARVAVPGRRDDL; derived from LipW) [Peptide W7] | greater than 1.5 |  |  |  | 
2 | CNNGDPICSDGNRWR (derived from Rv3452) [Peptide D7] | greater than 1.5 | 0.303 | > 1.5 | 1.7 | 1.7
3 | TAACPDAEWFARGR (TAACPDAEVVFARGR; derived from Rv2301) [Peptide Z1] | greater than 1.5 |  |  |  | 
